{"source": "PubChem BioAssay (NCI)", "test_in_all_cases": "growth of human tumour cells (NCI), 48 h", "key": {"UO-31 renal": {"tested_on": "UO-31 renal"}, "HCC-2998 colon": {"tested_on": "HCC-2998 colon"}, "MALME-3M melanoma": {"tested_on": "MALME-3M melanoma"}, "HCT-116 colon": {"tested_on": "HCT-116 colon"}, "SK-MEL-28 melanoma": {"tested_on": "SK-MEL-28 melanoma"}, "HOP-92 NSCLC": {"tested_on": "HOP-92 NSCLC"}, "M14 melanoma": {"tested_on": "M14 melanoma"}, "U251 CNS": {"tested_on": "U251 CNS"}, "A498 renal": {"tested_on": "A498 renal"}, "NCI/ADR-RES ovarian": {"tested_on": "NCI/ADR-RES ovarian"}, "HOP-62 NSCLC": {"tested_on": "HOP-62 NSCLC"}, "SF-295 CNS": {"tested_on": "SF-295 CNS"}, "MDA-MB-435": {"tested_on": "MDA-MB-435"}, "T-47D breast": {"tested_on": "T-47D breast"}, "KM12 colon": {"tested_on": "KM12 colon"}, "SW-620 colon": {"tested_on": "SW-620 colon"}, "COLO 205 colon": {"tested_on": "COLO 205 colon"}, "OVCAR-4 ovarian": {"tested_on": "OVCAR-4 ovarian"}, "PC-3 prostate": {"tested_on": "PC-3 prostate"}, "CCRF-CEM leukemia": {"tested_on": "CCRF-CEM leukemia"}, "BT-549 breast": {"tested_on": "BT-549 breast"}, "SK-MEL-5 melanoma": {"tested_on": "SK-MEL-5 melanoma"}, "HL-60(TB) leukemia": {"tested_on": "HL-60(TB) leukemia"}, "NCI-H522 lung": {"tested_on": "NCI-H522 lung"}, "OVCAR-8 ovarian": {"tested_on": "OVCAR-8 ovarian"}, "EKVX NSCLC": {"tested_on": "EKVX NSCLC"}, "UACC-62 melanoma": {"tested_on": "UACC-62 melanoma"}, "TK-10 renal": {"tested_on": "TK-10 renal"}, "LOX IMVI melanoma": {"tested_on": "LOX IMVI melanoma"}, "MOLT-4 leukemia": {"tested_on": "MOLT-4 leukemia"}}, "note": "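Test compounds were applied to cells in 96-well plates for 48 hours at 5 doses. Abbreviation: GI50, concentration required for 50% inhibition of growth. TGI marks complete inhibition of growth.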", "data": [{"molecule": "COc1ccccc1Nc1nc(-c2cc3cccc(C(F)(F)F)c3oc2=O)cs1", "values": [{"measurement": "TGI", "setting": "UO-31 renal", "result": "> 57.1", "unit": "µM"}, {"measurement": "GI50", "setting": "HCC-2998 colon", "result": 0.344, "unit": "µM"}, {"measurement": "TGI", "setting": "HCC-2998 colon", "result": "> 47.7", "unit": "µM"}, {"measurement": "GI50", "setting": "MALME-3M melanoma", "result": 1.63, "unit": "µM"}, {"measurement": "TGI", "setting": "MALME-3M melanoma", "result": "> 85.6", "unit": "µM"}, {"measurement": "GI50", "setting": "HCT-116 colon", "result": 0.0805, "unit": "µM"}, {"measurement": "TGI", "setting": "HCT-116 colon", "result": 11.1, "unit": "µM"}, {"measurement": "GI50", "setting": "SK-MEL-28 melanoma", "result": 1.64, "unit": "µM"}, {"measurement": "TGI", "setting": "SK-MEL-28 melanoma", "result": "> 100", "unit": "µM"}, {"measurement": "GI50", "setting": "HOP-92 NSCLC", "result": 0.112, "unit": "µM"}, {"measurement": "TGI", "setting": "HOP-92 NSCLC", "result": 33.1, "unit": "µM"}, {"measurement": "GI50", "setting": "M14 melanoma", "result": 0.111, "unit": "µM"}, {"measurement": "GI50", "setting": "U251 CNS", "result": 0.11, "unit": "µM"}, {"measurement": "TGI", "setting": "U251 CNS", "result": 29.3, "unit": "µM"}, {"measurement": "GI50", "setting": "A498 renal", "result": 0.0366, "unit": "µM"}, {"measurement": "TGI", "setting": "A498 renal", "result": 38.9, "unit": "µM"}, {"measurement": "GI50", "setting": "NCI/ADR-RES ovarian", "result": 0.0468, "unit": "µM"}, {"measurement": "TGI", "setting": "NCI/ADR-RES ovarian", "result": 5.55, "unit": "µM"}, {"measurement": "GI50", "setting": "HOP-62 NSCLC", "result": 0.134, "unit": "µM"}, {"measurement": "TGI", "setting": "HOP-62 NSCLC", "result": 29.7, "unit": "µM"}, {"measurement": "GI50", "setting": "SF-295 CNS", "result": 0.0353, "unit": "µM"}, {"measurement": "TGI", "setting": "SF-295 CNS", "result": 24.2, "unit": "µM"}, {"measurement": "GI50", "setting": "MDA-MB-435", "result": 0.0297, "unit": "µM"}, {"measurement": "TGI", "setting": "MDA-MB-435", "result": 0.164, "unit": "µM"}, {"measurement": "GI50", "setting": "T-47D breast", "result": 0.0535, "unit": "µM"}, {"measurement": "TGI", "setting": "T-47D breast", "result": "> 100", "unit": "µM"}, {"measurement": "GI50", "setting": "KM12 colon", "result": 0.0723, "unit": "µM"}, {"measurement": "TGI", "setting": "KM12 colon", "result": 22.3, "unit": "µM"}, {"measurement": "GI50", "setting": "SW-620 colon", "result": 0.144, "unit": "µM"}, {"measurement": "TGI", "setting": "SW-620 colon", "result": "> 100", "unit": "µM"}, {"measurement": "GI50", "setting": "COLO 205 colon", "result": 0.172, "unit": "µM"}, {"measurement": "TGI", "setting": "COLO 205 colon", "result": 0.522, "unit": "µM"}, {"measurement": "GI50", "setting": "OVCAR-4 ovarian", "result": 0.185, "unit": "µM"}, {"measurement": "TGI", "setting": "OVCAR-4 ovarian", "result": "> 63.3", "unit": "µM"}, {"measurement": "GI50", "setting": "PC-3 prostate", "result": 0.162, "unit": "µM"}, {"measurement": "TGI", "setting": "PC-3 prostate", "result": "> 100", "unit": "µM"}, {"measurement": "GI50", "setting": "CCRF-CEM leukemia", "result": 0.291, "unit": "µM"}, {"measurement": "TGI", "setting": "CCRF-CEM leukemia", "result": "> 100", "unit": "µM"}, {"measurement": "GI50", "setting": "BT-549 breast", "result": 0.26, "unit": "µM"}, {"measurement": "GI50", "setting": "SK-MEL-5 melanoma", "result": 0.169, "unit": "µM"}, {"measurement": "TGI", "setting": "SK-MEL-5 melanoma", "result": 0.627, "unit": "µM"}, {"measurement": "GI50", "setting": "HL-60(TB) leukemia", "result": 0.186, "unit": "µM"}, {"measurement": "TGI", "setting": "HL-60(TB) leukemia", "result": 0.521, "unit": "µM"}, {"measurement": "GI50", "setting": "NCI-H522 lung", "result": 0.0402, "unit": "µM"}, {"measurement": "TGI", "setting": "NCI-H522 lung", "result": 1.51, "unit": "µM"}, {"measurement": "GI50", "setting": "OVCAR-8 ovarian", "result": 0.301, "unit": "µM"}, {"measurement": "TGI", "setting": "OVCAR-8 ovarian", "result": "> 100", "unit": "µM"}, {"measurement": "GI50", "setting": "EKVX NSCLC", "result": 0.164, "unit": "µM"}, {"measurement": "TGI", "setting": "EKVX NSCLC", "result": "> 100", "unit": "µM"}, {"measurement": "GI50", "setting": "UACC-62 melanoma", "result": 0.154, "unit": "µM"}, {"measurement": "TGI", "setting": "UACC-62 melanoma", "result": "> 81.6", "unit": "µM"}, {"measurement": "GI50", "setting": "TK-10 renal", "result": 13.5, "unit": "µM"}, {"measurement": "TGI", "setting": "TK-10 renal", "result": 81.2, "unit": "µM"}, {"measurement": "GI50", "setting": "LOX IMVI melanoma", "result": 0.14, "unit": "µM"}, {"measurement": "TGI", "setting": "LOX IMVI melanoma", "result": "> 82.2", "unit": "µM"}, {"measurement": "GI50", "setting": "MOLT-4 leukemia", "result": 0.5, "unit": "µM"}, {"measurement": "TGI", "setting": "MOLT-4 leukemia", "result": "> 100", "unit": "µM"}]}]}
